Assay results reported in US10543212B2, “Substituted amines for treating cardiac diseases” (Cardurion Pharmaceuticals, LLC, priority 2017, dated 2020).

Molecular target: T1, Full-length, GST-tagged, human CaMKIIδ (Homo sapiens, UniProt Q13557)
T1 construct: Full-Length, Glutathione-S-Transferase(GST)-Tagged, Human CaMKIIδ was purchased from Carna Biosciences; purchased Carna Biosciences 02-111
Assay: CaMKIIδ binding assay (TR-FRET with BODIPY-labeled probe ligand)
Summary of the method: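 TR-FRET probe-displacement binding: 0.5 nM GST-CaMKIIδ with 10 μg/mL calmodulin, 1 mM CaCl2, 0.21 nM Tb-anti-GST Ab and 300 nM BODIPY probe in HEPES pH 7.6 buffer. Eight-point 4-fold dilutions, 1 hr at room temperature. IC50 from logistic fit; 100% inhibition defined by 3 μM parent compound.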

[1] = Table 2, CaMKIIδ binding assay, activity given as class A/B/C
[2] = Table 2, activity class for CaMKIIδ
[3] = CaMKIIδ binding assay, activity class per Table 2
[4] = CaMKIIδ binding assay, results of Table 2

T1 sequence (Q13557 1-478 isoform Q13557-12): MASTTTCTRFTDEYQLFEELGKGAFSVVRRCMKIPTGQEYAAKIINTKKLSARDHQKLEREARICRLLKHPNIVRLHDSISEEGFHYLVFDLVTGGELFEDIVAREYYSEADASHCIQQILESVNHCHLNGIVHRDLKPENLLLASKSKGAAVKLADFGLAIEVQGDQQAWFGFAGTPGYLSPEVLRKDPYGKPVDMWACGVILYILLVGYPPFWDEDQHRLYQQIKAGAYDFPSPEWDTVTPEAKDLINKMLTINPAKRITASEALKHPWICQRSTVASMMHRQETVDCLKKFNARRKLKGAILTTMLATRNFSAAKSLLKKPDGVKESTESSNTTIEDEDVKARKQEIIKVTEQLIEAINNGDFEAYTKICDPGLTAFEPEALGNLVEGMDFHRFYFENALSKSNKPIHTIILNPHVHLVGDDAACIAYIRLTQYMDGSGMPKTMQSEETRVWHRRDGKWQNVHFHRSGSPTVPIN

| SMILES | IC50 [1] [nM] | IC50 [2] [nM] | also measured |
| --- | --- | --- | --- |
| CC(=O)NCCn1cc(Nc2ncc(-c3ccc(Cl)c(O[C@@H](C)Cn4cnnn4)c3)cn2)c(C(F)(F)F)n1 [Example 846, (S)-N-(2-(4-((5-(3-((1-(1H-tetrazol-1-yl)propan-2-yl)oxy)-4-chlorophenyl)pyrimidin-2-yl)amino)-3-(trifluoromethyl)-1H-pyrazol-1-yl)ethyl)acetamide] | 10 to 100 |  |  |
| C[C@@H](Cn1cnnn1)Oc1cc(-c2cnc(Nc3nc4ccccc4n3C)nc2)ccc1Cl [Example 745, (S)-N-(5-(3-((1-(1H-tetrazol-1-yl)propan-2-yl)oxy)-4-chlorophenyl)pyrimidin-2-yl)-1-methyl-1H-benzo[d]imidazol-2-amine] | ≥ 100 |  |  |
| COc1nc(N2CCN(CC3COC3)CC2)ccc1Nc1ncc(-c2ccc(Cl)c(O[C@@H](C)Cn3cnnn3)c2)cn1 [Example 639, (S)-5-(3-((1-(1H-tetrazol-1-yl)propan-2-yl)oxy)-4-chlorophenyl)-N-(2-methoxy-6-(4-(oxetan-3-ylmethyl)piperazin-1-yl)pyridin-3-yl)pyrimidin-2-amine] |  | 10 to 100 |  |
| C[C@@H](Cn1cnnn1)Oc1cc(-c2cnc(Nc3cn(CC(=O)N4CCOCC4)nc3C(F)(F)F)nc2)ccc1Cl [Example 607, (S)-2-(4-((5-(3-((1-(1H-tetrazol-1-yl)propan-2-yl)oxy)-4-chlorophenyl)pyrimidin-2-yl)amino)-3-(trifluoromethyl)-1H-pyrazol-1-yl)-1-morpholinoethan-1-one] |  | < 10 |  |
| C[C@@H](Cn1cc(F)cn1)Oc1cc(-c2cnc(Nc3cn([C@H]4CC[C@H](N5CCOCC5)CC4)nc3OCC(F)(F)F)nc2)ccc1C#N [Example 830, 2-(((S)-1-(4-fluoro-1H-pyrazol-1-yl)propan-2-yl)oxy)-4-(2-((1-(trans-4-morpholinocyclohexyl)-3-(2,2,2-trifluoroethoxy)-1H-pyrazol-4-yl)amino)pyrimidin-5-yl)benzonitrile] | < 10 |  |  |
| CCOc1nn(C2CCN(C3CCOCC3)CC2)cc1Nc1ncc(-c2ccc(Cl)c(O[C@@H](C)Cn3cnnn3)c2)cn1 [Example 587, (S)-5-(3-((1-(1H-tetrazol-1-yl)propan-2-yl)oxy)-4-chlorophenyl)-N-(3-ethoxy-1-(1-(tetrahydro-2H-pyran-4-yl)piperidin-4-yl)-1H-pyrazol-4-yl)pyrimidin-2-amine] |  | < 10 |  |
| C[C@@H](Cn1cnnn1)Oc1cc(-c2cnc(Nc3cn([C@@H]4CCN(C5CCC5)C[C@H]4O)nc3C(F)(F)F)nc2)ccc1Cl (mixture of isomers) [Example 898, trans-4-(4-((5-(3-(((S)-1-(1H-tetrazol-1-yl)propan-2-yl)oxy)-4-chlorophenyl)pyrimidin-2-yl)amino)-3-(trifluoromethyl)-1H-pyrazol-1-yl)-1-cyclobutylpiperidin-3-ol] |  |  | IC50 [3]: < 10 nM |
| C[C@@H](Cn1cnnn1)Oc1cc(-c2cnc(Nc3ccc4c(c3)N(C(=O)CCCN(C)C)CC4)nc2)ccc1Cl [Example 436, (S)-1-(6-((5-(3-((1-(1H-tetrazol-1-yl)propan-2-yl)oxy)-4-chlorophenyl)pyrimidin-2-yl)amino)indolin-1-yl)-4-(dimethylamino)butan-1-one] |  |  | IC50 [4]: < 10 nM |
| C[C@@H](Cn1cnnn1)Oc1cc(-c2cnc(Nc3cn([C@H]4CC[C@H](N5CCOCC5)CC4)nc3OC3COC3)nc2)ccc1Cl [Example 821, 5-(3-(((S)-1-(1H-tetrazol-1-yl)propan-2-yl)oxy)-4-chlorophenyl)-N-(1-(trans-4-morpholinocyclohexyl)-3-(oxetan-3-yloxy)-1H-pyrazol-4-yl)pyrimidin-2-amine] | < 10 |  |  |
| C[C@@H](Cn1cnnn1)Oc1cc(-c2cnc(Nc3cn([C@H]4CC[C@@H](N5CCOCC5)CC4)nc3OC[C@@H]3CC3(F)F)nc2)ccc1Cl [Example 870, 5-(3-(((S)-1-(1H-tetrazol-1-yl)propan-2-yl)oxy)-4-chlorophenyl)-N-(3-(((S)-2,2-difluorocyclopropyl)methoxy)-1-(cis-4-morpholinocyclohexyl)-1H-pyrazol-4-yl)pyrimidin-2-amine] | < 10 |  |  |
| C[C@@H](Cn1cnnn1)Oc1cc(-c2cnc(Nc3cn(CC4CCCN(C)C4)nc3C(F)(F)F)nc2)ccc1Cl (stereo partly drawn) [Example 635, 5-(3-(((S)-1-(1H-tetrazol-1-yl)propan-2-yl)oxy)-4-chlorophenyl)-N-(1-((1-methylpiperidin-3-yl)methyl)-3-(trifluoromethyl)-1H-pyrazol-4-yl)pyrimidin-2-amine] |  | 10 to 100 |  |
| COc1nn(C2CCN(C(=O)OC(C)(C)C)CC2)cc1Nc1ncc(-c2ccc(Cl)c(O[C@@H](C)Cn3cnnn3)c2)cn1 [Example 646, tert-butyl (S)-4-(4-((5-(3-((1-(1H-tetrazol-1-yl)propan-2-yl)oxy)-4-chlorophenyl)pyrimidin-2-yl)amino)-3-methoxy-1H-pyrazol-1-yl)piperidine-1-carboxylate] |  | 10 to 100 |  |
| C[C@@H](Cn1cnnn1)Oc1cc(-c2cnc(Nc3cn(CC4CN(C5COC5)C4)nc3C(F)(F)F)nc2)ccc1Cl [Example 598, (S)-5-(3-((1-(1H-tetrazol-1-yl)propan-2-yl)oxy)-4-chlorophenyl)-N-(1-((1-(oxetan-3-yl)azetidin-3-yl)methyl)-3-(trifluoromethyl)-1H-pyrazol-4-yl)pyrimidin-2-amine] |  | < 10 |  |
| C[C@@H](Cn1cnnn1)Oc1cc(-c2cnc(Nc3cn(-c4cn[nH]c4)nc3C(F)(F)F)nc2)ccc1Cl [Example 890, (S)-N-(5-(3-((1-(1H-tetrazol-1-yl)propan-2-yl)oxy)-4-chlorophenyl)pyrimidin-2-yl)-3-(trifluoromethyl)-1′H-[1,4′-bipyrazol]-4-amine] |  |  | IC50 [3]: 10 to 100 nM |
| C[C@@H](Cn1cnnn1)Oc1cc(-c2cnc(Nc3cn(C4CCN(C5CC5)CC4)nc3OCC(F)(F)F)nc2)ccc1Cl [Example 794, (S)-5-(3-((1-(1H-tetrazol-1-yl)propan-2-yl)oxy)-4-chlorophenyl)-N-(1-(1-cyclopropylpiperidin-4-yl)-3-(2,2,2-trifluoroethoxy)-1H-pyrazol-4-yl)pyrimidin-2-amine] | < 10 |  |  |
| COc1cc2c(cc1Nc1ncc(-c3ccc(Cl)c(O[C@@H](C)Cn4cnnn4)c3)cn1)CCNC2 [Example 465, (S)-N-(5-(3-((1-(1H-tetrazol-1-yl)propan-2-yl)oxy)-4-chlorophenyl)pyrimidin-2-yl)-7-methoxy-1,2,3,4-tetrahydroisoquinolin-6-amine] |  |  | IC50 [4]: < 10 nM |
| C[C@@H](Cn1cnnn1)Oc1cc(-c2cnc(Nc3cn([C@H]4CC[C@@H](N5CCOCC5)CC4)nc3C(F)(F)F)nc2)ccc1Cl [Example 781, 5-(3-(((S)-1-(1H-tetrazol-1-yl)propan-2-yl)oxy)-4-chlorophenyl)-N-(1-(cis-4-morpholinocyclohexyl)-3-(trifluoromethyl)-1H-pyrazol-4-yl)pyrimidin-2-amine] | < 10 |  |  |
| C[C@@H](Cn1cnnn1)Oc1cc(-c2cnc(Nc3cn([C@@H]4C[C@H]5CC[C@@H](C4)N5)nc3C(F)(F)F)nc2)ccc1Cl [Example 702, 5-(3-(((S)-1-(1H-tetrazol-1-yl)propan-2-yl)oxy)-4-chlorophenyl)-N-(1-((1R,3s,5S)-8-azabicyclo[3.2.1]octan-3-yl)-3-(trifluoromethyl)-1H-pyrazol-4-yl)pyrimidin-2-amine] |  | < 10 |  |
| C[C@@H](Cn1cnnn1)Oc1cc(-c2cnc(Nc3cn([C@H]4CC[C@H](N5CCOCC5)CC4)nc3OCC(F)(F)F)nc2)ccc1F [Example 813, 5-(3-(((S)-1-(1H-tetrazol-1-yl)propan-2-yl)oxy)-4-fluorophenyl)-N-(1-(trans-4-morpholinocyclohexyl)-3-(2,2,2-trifluoroethoxy)-1H-pyrazol-4-yl)pyrimidin-2-amine] | < 10 |  |  |
| CCN(CC)C(=O)Cn1cc(Nc2ncc(-c3ccc(Cl)c(O[C@@H](C)Cn4cnnn4)c3)cn2)c(C(F)(F)F)n1 [Example 606, (S)-2-(4-((5-(3-((1-(1H-tetrazol-1-yl)propan-2-yl)oxy)-4-chlorophenyl)pyrimidin-2-yl)amino)-3-(trifluoromethyl)-1H-pyrazol-1-yl)-N,N-diethylacetamide] |  | 10 to 100 |  |
| COc1cc2c(cc1Nc1ncc(-c3ccc(Cl)c(O[C@@H](C)Cn4cnnn4)c3)cn1)CN(C(=O)CN(C)C)CC2 [Example 464, (S)-1-(7-((5-(3-((1-(1H-tetrazol-1-yl)propan-2-yl)oxy)-4-chlorophenyl)pyrimidin-2-yl)amino)-6-methoxy-3,4-dihydroisoquinolin-2(1H)-yl)-2-(dimethylamino)ethan-1-one] |  |  | IC50 [4]: < 10 nM |
| COc1ccc(N2CC(N3CCOCC3)C2)cc1Nc1ncc(-c2ccc(Cl)c(O[C@@H](C)Cn3cnnn3)c2)cn1 [Example 595, (S)-5-(3-((1-(1H-tetrazol-1-yl)propan-2-yl)oxy)-4-chlorophenyl)-N-(2-methoxy-5-(3-morpholinoazetidin-1-yl)phenyl)pyrimidin-2-amine] |  | 10 to 100 |  |
| C[C@@H](Cn1cnnn1)Oc1cc(-c2cnc(Nc3cn(-c4ccc(=O)[nH]c4)nc3C(F)(F)F)nc2)ccc1Cl [Example 868, (S)-5-(4-((5-(3-((1-(1H-tetrazol-1-yl)propan-2-yl)oxy)-4-chlorophenyl)pyrimidin-2-yl)amino)-3-(trifluoromethyl)-1H-pyrazol-1-yl)pyridin-2(1H)-one] | 10 to 100 |  |  |
| C[C@@H](Cn1cnnn1)Oc1cc(-c2cnc(Nc3cn([C@H]4CC[C@@H](N5CC6(COC6)C5)CC4)nc3OCC(F)F)nc2)ccc1Cl [Example 828, 5-(3-(((S)-1-(1H-tetrazol-1-yl)propan-2-yl)oxy)-4-chlorophenyl)-N-(1-(cis-4-(2-oxa-6-azaspiro[3.3]heptan-6-yl)cyclohexyl)-3-(2,2-difluoroethoxy)-1H-pyrazol-4-yl)pyrimidin-2-amine] | < 10 |  |  |
| C[C@@H](Cn1cnnn1)Oc1cc(-c2cnc(Nc3cn(C4CCCC4)nc3C(F)(F)F)nc2)ccc1Cl [Example 739, (S)-5-(3-((1-(1H-tetrazol-1-yl)propan-2-yl)oxy)-4-chlorophenyl)-N-(1-cyclopentyl-3-(trifluoromethyl)-1H-pyrazol-4-yl)pyrimidin-2-amine] | 10 to 100 |  |  |
